# In PMC8762671 (Chemical research in toxicology, 2021):
# Tests used:
# [1] = tested on: human iPSC-derived cardiomyocytes; conditions: standard donor 1434 compared to the other 4 donors; ref [36]; cited from earlier work
# [2] = tested on: human iPSC-derived cardiomyocytes; experiment: Ca2+ flux assay; assay type: cell-based; conditions: for critical endpoint (most sensitive phenotype): phenotype with lowest POD for the population median
smiles,measurement,setting,value
"COc1cc(N)c(Cl)cc1C(=O)NC1CCN(CCCOc2ccc(F)cc2)CC1OC (centres unmarked) [Cisapride, cisapride]","efficacy (Emax, maximum increase in decay-rise ratio)",[1],greatest efficacy
CC(C)NCC(O)c1ccc(O)c(O)c1 (centres unmarked) [Isoproterenol],effect on beat rate ([+] chronotropy positive control),"[2]; 10 μM, 90 min exposure, 5 donors, response vs vehicle control",expected effects on beat rate
COCCc1ccc(OCC(O)CNC(C)C)cc1 (centres unmarked) [metoprolol],critical endpoint (most sensitive phenotype),[2],did not exhibit decay-rise ratio as the critical endpoint
CC(C)NCC(O)COc1cccc2ccccc12 (centres unmarked) [propranolol],effect on beat rate ([-] chronotropy positive control),"[2]; 0.5 μM, 90 min exposure, 5 donors, response vs vehicle control",expected effects on beat rate
CC/C(=C(\c1ccccc1)c1ccc(OCCN(C)C)cc1)c1ccccc1 [tamoxifen],critical endpoint (most sensitive phenotype),[2],did not exhibit decay-rise ratio as the critical endpoint
